From patent publication US12448369B2 (Edgewise Therapeutics, Inc., priority 2023, dated 2025)

Assays:
[1] = system: Rabbit Psoas myofibrils (skeletal myosin ATPase); test: Myofibril ATPase assay, rabbit psoas (skeletal) myofibrils; assay type: biochemical; conditions: rabbit psoas myofibrils
In short: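 ATPase activity of Triton-washed myofibrils was measured by PK/LDH coupling, following NADH loss at 340 nm every 1.5–2 min for 75 min in PIPES/Ca/EGTA buffer at pH 7.0. Slopes, normalized to vehicle (100%), were fitted to a 4-parameter logistic model. Values are Y75 (25% inhibition) or Y125 (activators).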

[2] = system: Porcine atria myofibrils (atrial myosin ATPase); test: Myofibril ATPase assay, porcine atria myofibrils; assay type: biochemical; conditions: porcine atria myofibrils
In short: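 Porcine atrial myofibrils were tested in a PK/LDH-coupled system where ADP from myosin ATPase drives NADH oxidation. Absorbance at 340 nm was read every 1.5-2 min for 75 min and slopes were normalized to vehicle wells. A 4-parameter logistic fit gave Y75 (25% inhibition) or Y125 (activation) concentrations.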

[3] = molecular target: T1, Porcine ventricle myofibrils (ventricular myosin ATPase) (Sus scrofa, UniProt P79293); test: Myofibril ATPase assay, porcine ventricle myofibrils; assay type: biochemical, porcine (Yucatan minipigs); conditions: porcine ventricle myofibrils
T1 construct: Myofibrils from porcine cardiac muscle was isolated from the left ventricle of Yucatan minipigs; tissue Exemplar Genetics; host or cells: left ventricle of Yucatan minipigs, myofibrils prepared in house
In short: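 Myofibrils isolated from Yucatan minipig left ventricle; coupled PK/LDH NADH assay, pCa buffer pH 7.0, kinetic A340 reads over 75 min. Vehicle-normalized slopes fit 4PL; Y75/Y125 derived.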

[4] = ‡ Y125 value, not a Y75 value (125% activity relative to no compound)

T1 sequence (P79293 whole entry): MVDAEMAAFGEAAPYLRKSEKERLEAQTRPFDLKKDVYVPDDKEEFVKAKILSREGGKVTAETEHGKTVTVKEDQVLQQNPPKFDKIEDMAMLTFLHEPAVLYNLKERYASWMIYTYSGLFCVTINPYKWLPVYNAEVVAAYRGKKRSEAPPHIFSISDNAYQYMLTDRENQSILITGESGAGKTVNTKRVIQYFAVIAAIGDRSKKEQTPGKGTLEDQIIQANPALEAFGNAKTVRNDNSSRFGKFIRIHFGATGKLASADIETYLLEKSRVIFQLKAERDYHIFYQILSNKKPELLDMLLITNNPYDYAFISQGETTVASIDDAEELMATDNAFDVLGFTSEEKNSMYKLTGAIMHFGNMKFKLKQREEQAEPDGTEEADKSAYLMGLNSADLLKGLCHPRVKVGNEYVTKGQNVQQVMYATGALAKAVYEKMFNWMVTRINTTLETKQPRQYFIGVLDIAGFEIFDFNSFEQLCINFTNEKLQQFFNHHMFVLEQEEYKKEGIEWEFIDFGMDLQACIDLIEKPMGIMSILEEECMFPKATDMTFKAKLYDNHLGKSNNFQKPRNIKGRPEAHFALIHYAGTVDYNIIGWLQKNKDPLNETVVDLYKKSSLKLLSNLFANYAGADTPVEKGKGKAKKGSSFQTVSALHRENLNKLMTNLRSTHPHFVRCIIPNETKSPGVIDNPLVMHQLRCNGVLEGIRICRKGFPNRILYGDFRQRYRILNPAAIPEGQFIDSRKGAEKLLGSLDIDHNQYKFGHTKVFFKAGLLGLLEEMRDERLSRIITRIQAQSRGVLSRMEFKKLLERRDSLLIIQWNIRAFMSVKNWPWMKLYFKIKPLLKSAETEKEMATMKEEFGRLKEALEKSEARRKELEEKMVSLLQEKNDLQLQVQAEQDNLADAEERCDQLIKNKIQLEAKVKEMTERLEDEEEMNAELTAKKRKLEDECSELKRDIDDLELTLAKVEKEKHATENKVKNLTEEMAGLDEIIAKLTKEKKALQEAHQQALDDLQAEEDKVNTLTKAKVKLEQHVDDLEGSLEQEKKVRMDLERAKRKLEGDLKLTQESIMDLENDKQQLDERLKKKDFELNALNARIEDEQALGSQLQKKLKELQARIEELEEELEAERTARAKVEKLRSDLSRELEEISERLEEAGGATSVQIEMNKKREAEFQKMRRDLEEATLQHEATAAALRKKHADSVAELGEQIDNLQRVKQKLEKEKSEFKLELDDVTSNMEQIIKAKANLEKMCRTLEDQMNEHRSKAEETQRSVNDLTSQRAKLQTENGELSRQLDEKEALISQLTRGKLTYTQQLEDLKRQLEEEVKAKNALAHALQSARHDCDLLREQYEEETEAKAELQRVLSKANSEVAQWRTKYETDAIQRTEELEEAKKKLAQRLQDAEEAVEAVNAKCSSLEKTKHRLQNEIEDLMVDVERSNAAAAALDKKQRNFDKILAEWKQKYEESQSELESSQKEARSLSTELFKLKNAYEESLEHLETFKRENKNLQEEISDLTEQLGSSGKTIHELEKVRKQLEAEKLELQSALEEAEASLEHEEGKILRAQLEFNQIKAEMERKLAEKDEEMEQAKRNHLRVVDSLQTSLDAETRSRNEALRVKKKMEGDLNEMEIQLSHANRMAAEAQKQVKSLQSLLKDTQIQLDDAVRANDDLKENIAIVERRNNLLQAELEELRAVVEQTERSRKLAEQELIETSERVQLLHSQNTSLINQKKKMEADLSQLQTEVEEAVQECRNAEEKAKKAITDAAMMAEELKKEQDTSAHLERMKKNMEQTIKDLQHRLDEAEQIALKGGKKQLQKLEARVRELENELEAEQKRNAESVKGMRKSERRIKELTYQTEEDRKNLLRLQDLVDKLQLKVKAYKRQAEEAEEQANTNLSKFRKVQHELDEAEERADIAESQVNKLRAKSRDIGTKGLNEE

Skeletal EC25 ([1]; Y75 value (no ‡ mark)) [µM]	Atrial EC25 ([2]; Y75 value (no ‡ mark)) [µM]	Ventricular EC25 ([3]; Y75 value (no ‡ mark)) [µM]	Skeletal EC25 [1, 4]	Ventricular EC25 [3, 4]	Atrial EC25 [2, 4]	Structure (SMILES)
0.67	0.79	100.00				Cc1c(C(F)(F)C(=O)N[C@H]2CCc3cc(C#N)cnc32)c(=O)[nH]c2ccc(F)cc12 (single isomer, unassigned) [compound 2516]
0.52	0.31	1.19				Cc1c(F)ccc2[nH]c(=O)c(C(F)(F)C(=O)N[C@H](C)c3ncc(C#N)cc3F)c(C#N)c12 (single isomer, unassigned) [compound 2519]
0.07	0.14	0.21				Cc1c(F)ccc2[nH]c(=O)c(C(F)(F)C(=O)N[C@@H](C)c3ncc(C#N)cc3F)c(C#N)c12 (single isomer, unassigned) [compound 2520]
0.41	0.32	1.83				Cc1c(C(F)(F)C(=O)N[C@H](C)c2ncc(C#N)cn2)c(=O)[nH]c2ccc(F)c(C#N)c12 (single isomer, unassigned) [compound 2521]
0.14	0.32	0.72				Cc1c(C(F)(F)C(=O)N[C@@H](C)c2ncc(C#N)cn2)c(=O)[nH]c2ccc(F)c(C#N)c12 (single isomer, unassigned) [compound 2522]
	0.19	0.74	100.00‡ μM			Cc1c(C2(C(=O)N[C@H](C)c3ncc(C#N)cc3F)CC2)c(=O)[nH]c2ccc(F)c(C#N)c12 (single isomer, unassigned) [compound 2523]
0.13	0.16	0.31				Cc1c(C2(C(=O)N[C@@H](C)c3ncc(C#N)cc3F)CC2)c(=O)[nH]c2ccc(F)c(C#N)c12 (single isomer, unassigned) [compound 2524]
	4.73	100.00	100.00‡ μM			Cc1c(C(F)(F)C(=O)N[C@H](C)c2nccc(C#N)n2)c(=O)[nH]c2ccc(F)cc12 (single isomer, unassigned) [compound 2527]
	4.45	100.00	93.23‡ μM			Cc1c(C(F)(F)C(=O)N[C@@H](C)c2nccc(C#N)n2)c(=O)[nH]c2ccc(F)cc12 (single isomer, unassigned) [compound 2528]
2.08	1.29	15.11				Cc1c(C2(C(=O)N[C@H](C)c3ncc(C#N)cn3)CC2)c(=O)[nH]c2ccc(F)c(C#N)c12 (single isomer, unassigned) [compound 2531]
1.49	0.89	45.96				Cc1c(C2(C(=O)N[C@@H](C)c3ncc(C#N)cn3)CC2)c(=O)[nH]c2ccc(F)c(C#N)c12 (single isomer, unassigned) [compound 2532]
0.06	0.13	0.13				Cc1c(C(F)(F)C(=O)N[C@@H](C)c2ncc(C#N)cc2F)c(=O)[nH]c2cccc(F)c12 (single isomer, unassigned) [compound 2533]
	15.93	100.00	37.90‡ μM			C[C@@H](NC(=O)C1(c2cc3cc(F)ccc3[nH]c2=O)CC1)c1cccc(C#N)n1 (single isomer, unassigned) [compound 2534]
	100.00		51.07‡ μM	85.38‡ μM		C[C@H](NC(=O)C1(c2cc3cc(F)ccc3[nH]c2=O)CC1)c1cccc(C#N)n1 (single isomer, unassigned) [compound 2535]
	30.59	100.00	77.37‡ μM			C[C@@H](NC(=O)C1(c2cc3cc(F)ccc3[nH]c2=O)CC1)c1cc(C#N)ccn1 (single isomer, unassigned) [compound 2536]
	100.00		100.00‡ μM	100.00‡ μM		C[C@H](NC(=O)C1(c2cc3cc(F)ccc3[nH]c2=O)CC1)c1cc(C#N)ccn1 (single isomer, unassigned) [compound 2537]
0.11	0.17	0.18				Cc1c(C(F)(F)C(=O)N[C@H](C)c2ncc(C#N)cc2F)c(=O)[nH]c2cccc(F)c12 (single isomer, unassigned) [compound 2538]

Skeletal EC25 ([1]; Y75 value (no ‡ mark)) [µM]	Atrial EC25 ([2]; Y75 value (no ‡ mark)) [µM]	Ventricular EC25 ([3]; Y75 value (no ‡ mark)) [µM]	Skeletal EC25 [1, 4]	Ventricular EC25 [3, 4]	Atrial EC25 [2, 4]	Structure (SMILES)
100.00	2.76	100.00				Cc1c(C2(C(=O)N[C@H](C)c3cc(C#N)ccn3)CC2)c(=O)[nH]c2ccc(F)c(F)c12 (single isomer, unassigned) [compound 2539]
0.96		100.00			100.00‡ μM	Cc1c(C2(C(=O)N[C@@H](C)c3cc(C#N)ccn3)CC2)c(=O)[nH]c2ccc(F)c(F)c12 (single isomer, unassigned) [compound 2540]
0.85	0.33	0.70				Cc1c(C2(C(=O)N[C@H](C)c3ncc(C#N)cc3F)CC2)c(=O)[nH]c2cccc(C#N)c12 (single isomer, unassigned) [compound 2541]
0.32	0.24	0.40				Cc1c(C2(C(=O)N[C@@H](C)c3ncc(C#N)cc3F)CC2)c(=O)[nH]c2cccc(C#N)c12 (single isomer, unassigned) [compound 2542]
0.83	0.73	4.00				Cc1c(C2(C(=O)N[C@H](C)c3ncc(C#N)cn3)CC2)c(=O)[nH]c2cccc(C#N)c12 (single isomer, unassigned) [compound 2543]
2.27	4.48	18.26				Cc1c(C2(C(=O)N[C@@H](C)c3ncc(C#N)cn3)CC2)c(=O)[nH]c2cccc(C#N)c12 (single isomer, unassigned) [compound 2544]
0.13	7.98	1.22				C[C@@H](NC(=O)C(F)(F)c1cc2c(F)c(F)ccc2[nH]c1=O)c1ncc(C#N)cn1 (single isomer, unassigned) [compound 2545]
0.19	0.20	1.23				C[C@H](NC(=O)C(F)(F)c1cc2c(F)c(F)ccc2[nH]c1=O)c1ncc(C#N)cn1 (single isomer, unassigned) [compound 2546]
0.91				58.38‡ μM	100.00‡ μM	Cc1c(C2(C(=O)N[C@H](C)c3cccc(C#N)n3)CC2)c(=O)[nH]c2ccc(F)c(F)c12 (single isomer, unassigned) [compound 2547]
	45.39	100.00	45.96‡ μM			Cc1c(C2(C(=O)N[C@@H](C)c3cccc(C#N)n3)CC2)c(=O)[nH]c2ccc(F)c(F)c12 (single isomer, unassigned) [compound 2548]
7.56	0.97	100.00				C[C@@H](NC(=O)C1(c2cc3c(F)c(F)ccc3[nH]c2=O)CC1)c1ncc(C#N)cn1 (single isomer, unassigned) [compound 2549]
1.22	1.39	77.93				C[C@H](NC(=O)C1(c2cc3c(F)c(F)ccc3[nH]c2=O)CC1)c1ncc(C#N)cn1 (single isomer, unassigned) [compound 2550]
0.79	0.51	34.88				Cc1c(C(F)(F)C(=O)N[C@@H]2COc3cc(C#N)cc(F)c32)c(=O)[nH]c2ccc(F)cc12 (single isomer, unassigned) [compound 2553]
0.80	3.65	6.70				Cc1c(C(F)(F)C(=O)N[C@H](C)c2ccc(C#N)nn2)c(=O)[nH]c2ccc(F)cc12 (single isomer, unassigned) [compound 2555]
5.17	6.56	16.01				Cc1c(C(F)(F)C(=O)N[C@@H](C)c2ccc(C#N)nn2)c(=O)[nH]c2ccc(F)cc12 (single isomer, unassigned) [compound 2556]
6.04	3.66	7.27				C[C@@H](NC(=O)C(F)(F)c1cc2c(F)c(F)ccc2[nH]c1=O)c1cc(C#N)ccn1 (single isomer, unassigned) [compound 2557]
100.00	31.66	81.97				C[C@H](NC(=O)C(F)(F)c1cc2c(F)c(F)ccc2[nH]c1=O)c1cc(C#N)ccn1 (single isomer, unassigned) [compound 2558]
